Reference: patent publication US20210395210A1, “INHIBITION OF BACTERIAL CHAPERONIN SYSTEMS” (THE TRUSTEES OF INDIANA UNIVERSITY, priority 2018, published 2021)
Like-named read-outs stand apart in the source and are kept apart here.

Assays:
[1] = tested on: Klebsiella Pneumonia (ATCC 13883); assay: Bacterial proliferation assay, K. pneumoniae; format: cell-based
Summary of the method: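 Klebsiella pneumoniae ATCC 13883 was cultured in Brain Heart Infusion medium supplemented with 25 mg/L Ca^2+ and 12.5 mg/L Mg^2+. Cells were diluted to OD600 0.017, and 30 μL was added to 384-well plates holding 0.5 μL compound in 20 μL media. Plates were incubated stagnantly at 37° C., and OD600 was read at 6-8 h to determine EC50.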

[2] = tested on: Enterobacter cloacae (ATCC 13047); assay: Bacterial proliferation assay, E. cloacae; format: cell-based
Summary of the method: (§1)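 Cultures in BHI broth with 25 mg/L Ca2+ and 12.5 mg/L Mg2+ were diluted to OD600 0.017 and exposed to compounds in 384-well plates at 37 °C without shaking. OD600 was read at 6-8 h (S. aureus, E. cloacae, P. aeruginosa) or 24 h (A. baumannii). EC50 values were averaged over quadruplicates.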

[3] = tested on: Methicillin resistant S. aureus (MRSA) (ATCC BAA-44); assay: Bacterial proliferation assay, MRSA; format: cell-based, Staphylococcus aureus; conditions: Staphylococcus aureus, MRSA
Summary of the method: as §1

[4] = tested on: Drug sensitive Staphylococcus aureus (ATCC 25923); assay: Bacterial proliferation assay, drug sensitive S. aureus; format: cell-based
Summary of the method: as §1

[5] = tested on: Acinetobacter baumannii (ATCC 19606); assay: Bacterial proliferation assay, A. baumannii; format: cell-based
Summary of the method: as §1

native MDH = molecular target: T1, native MDH (Sus scrofa, UniProt P00346); assay: Counter-screen for inhibition of native MDH enzymatic activity; format: biochemical, pig
T1 construct: soluble pig heart MDH from Roche, product #10127248001; purchased Roche 10127248001; host or cells: pig heart
T1 sequence (P00346 25-338): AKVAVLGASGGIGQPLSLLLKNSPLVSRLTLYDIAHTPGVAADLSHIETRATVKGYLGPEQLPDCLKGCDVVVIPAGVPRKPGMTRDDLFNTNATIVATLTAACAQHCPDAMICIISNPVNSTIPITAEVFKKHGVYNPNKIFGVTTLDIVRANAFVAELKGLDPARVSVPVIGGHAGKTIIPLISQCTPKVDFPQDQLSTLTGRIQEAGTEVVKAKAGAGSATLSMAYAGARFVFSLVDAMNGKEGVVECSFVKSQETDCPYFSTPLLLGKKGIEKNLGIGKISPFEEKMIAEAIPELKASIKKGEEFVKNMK
Summary of the method: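 Compounds were added only after GroEL/ES-mediated MDH refolding (45 min, 37 °C) had been EDTA-quenched, so only refolded MDH activity is probed.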

[6] = tested on: Enterococcus faecium (ATCC 19434); assay: Bacterial proliferation assay, E. faecium; format: cell-based
Summary of the method: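 Enterococcus faecium ATCC 19434 was grown overnight at 37° C. in BHI broth supplemented with 25 mg/L Ca^2+ and 12.5 mg/L Mg^2+, subcultured 1:5, and diluted to OD600 0.017. 30 μL portions went into 384-well plates holding compounds, sealed with oxygen-permeable membranes, and incubated stagnant at 37° C. OD600 was read at 24 h to give EC50.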

[7] = ATCC13883, OD600 at 6-8 h, read-out: Bacterial Proliferation EC50 K. pneumoniae
[8] = ATCC13883, log of EC50 (μM scale), with standard deviation, read-out: log(EC50) Bacterial Proliferation Assay K. pneumoniae (converted)
[9] = ATCC13047, OD600 at 6-8 h, read-out: Bacterial Proliferation EC50 E. cloacae
[10] = ATCC13047, log of EC50 (μM scale), with standard deviation, read-out: log(EC50) Bacterial Proliferation Assay E. cloacae (converted)
[11] = log of EC50 (μM scale), with standard deviation, read-out: log(EC50) Bacterial Proliferation Assay S. aureus Resistant (converted)
[12] = ATCC25923, OD600 at 6-8 h, read-out: Bacterial Proliferation EC50 S. aureus Sensitive
[13] = ATCC25923, log of EC50 (μM scale), with standard deviation, read-out: log(EC50) Bacterial Proliferation Assay S. aureus Sensitive (converted)
[14] = ATCC19606, OD600 at 24 h, read-out: Bacterial Proliferation EC50 A. baumannii
[15] = ATCC19606, log of EC50 (μM scale), with standard deviation, read-out: log(EC50) Bacterial Proliferation Assay A. baumannii (converted)
[16] = log of IC50 (μM scale), with standard deviation, read-out: log(IC50) Native MDH Reporter (converted)
[17] = read-out: Biochemical Assay IC50 Native MDH Reporter
[18] = ATCC19434, OD600 at 24 h, read-out: Bacterial Proliferation EC50 E. faecium
[19] = ATCC19434, log of EC50 (μM scale), with standard deviation, read-out: log(EC50) Bacterial Proliferation Assay C. faecium (converted)

Structure (SMILES) | EC50 [1, 7] | EC50 [1, 8] | EC50 [2, 9] | EC50 [2, 10] | EC50 [3, 11] | EC50 [4, 12] | EC50 [4, 13] | EC50 [5, 14] | EC50 [5, 15] | IC50 (native MDH; [16]) | IC50 (native MDH; [17]) | EC50 [6, 18] | EC50 [6, 19] | EC50 ([3]; OD600 at 6-8 h, read-out: Bacterial Proliferation EC50 S. aureus Resistant)
COc1c(Br)cc(Br)cc1C(=O)Nc1ccc(Sc2nc3ccccc3s2)cc1 [Compound 33, N-(4-(Benzo[d]thiazol-2-ylthio)phenyl)-3,5-dibromo-2-methoxybenzamide] | > 100 µM | > 100 µM | > 100 µM | > 100 µM | > 100 µM | > 100 µM | > 100 µM | > 100 µM | > 100 µM | > 63.1 µM | > 63 µM | > 100 µM | > 100 µM | –
COc1c(Br)cccc1C(=O)Nc1ccc(Sc2nc3ccccc3s2)cc1 [Compound 34, N-(4-(Benzo[d]thiazol-2-ylthio)phenyl)-3-bromo-2-methoxybenzamide] | > 100 µM | > 100 µM | > 100 µM | > 100 µM | > 100 µM | > 100 µM | > 100 µM | > 100 µM | > 100 µM | > 63.1 µM | > 63 µM | > 100 µM | > 100 µM | –
COc1ccc(Br)cc1C(=O)Nc1ccc(Sc2nc3ccccc3s2)cc1 [Compound 35, N-(4-(Benzo[d]thiazol-2-ylthio)phenyl)-5-bromo-2-methoxybenzamide] | > 100 µM | > 100 µM | > 100 µM | > 100 µM | > 100 µM | > 100 µM | > 100 µM | > 100 µM | > 100 µM | > 63.1 µM | > 63 µM | > 100 µM | > 100 µM | –
COc1ccccc1C(=O)Nc1ccc(Sc2nc3ccccc3s2)cc1 [Compound 36, N-(4-(Benzo[d]thiazol-2-ylthio)phenyl)-2-methoxybenzamide] | > 100 µM | > 100 µM | > 100 µM | > 100 µM | > 100 µM | > 100 µM | > 100 µM | > 100 µM | > 100 µM | > 63.1 µM | > 63 µM | > 100 µM | > 100 µM | –
COc1c(Br)cc(Br)cc1C(=O)Nc1cccc(Cl)c1 [Compound 37, 3,5-Dibromo-N-(3-chlorophenyl)-2-methoxybenzamide] | > 100 µM | > 100 µM | > 100 µM | > 100 µM | > 100 µM | 46 µM | 45.7 µM | > 100 µM | > 100 µM | > 63.1 µM | > 63 µM | > 100 µM | > 100 µM | > 100 µM
COc1c(Br)cccc1C(=O)Nc1cccc(Cl)c1 [Compound 38] | > 100 µM | > 100 µM | > 100 µM | > 100 µM | > 100 µM | > 100 µM | > 100 µM | > 100 µM | > 100 µM | > 63.1 µM | > 63 µM | > 100 µM | > 100 µM | –
